{"source": "paper PMC9697438", "about": "“Therapeutic Potential of 2-Methylquinazolin-4(3H)-one as an Antiviral Agent against Influenza A Virus-Induced Acute Lung Injury in Mice” (Molecules, 2022)", "key": {"[1]": {"tested_on": "cytokines in lung homogenates", "test": "ELISA of cytokines in lung tissue homogenates of H1N1-infected mice", "type": "in vivo, BALB/c mice", "conditions": "for expression level of IL-10 in lung homogenates / expression level of INF-γ in lung homogenates: C1 10 mg/kg, Os. 20 mg/kg, vs H1N1 virus group; for IL-1β level in lung homogenates / IL-6 level in lung homogenates / MCP-1 production in lung homogenates / TNF-α level in lung homogenates: C1 2.5, 5, 10 mg/kg, oseltamivir phosphate 20 mg/kg, vs model group, dose-dependent, p < 0.001, day 4", "method": "(§1) Five-week-old healthy male BALB/c mice (n = 6 per group) were maintained in pathogen-free individual cages with free access to drinking water and sterilized food, as described previously. The mice were randomly allocated into the following groups: normal control group, H1N1 model group, C1 (2.5, 5, 10 mg/kg) treatment group, and positive control group treated with oseltamivir (20 mg/kg, positive control). Except for normal controls, the rest of mice were intranasally infected with 30 μL of diluted H1N1virus (3LD50) after light anesthesia. Negative control mice (normal group) were challenged by inhaling equal volumes (30 μL) of virus diluent as the other mice. Then, 2 h later, C1 (2.5, 5, 10 mg/kg) and Oseltamivir (20 mg/kg) dissolved in 5% CMC-Na solution were given to mice (0.1 mL/10 g) once per day (i.g.) at day 0 (D0), day 1 (D1), day 2 (D2) and day 3 (D3) after infection with H1N1 virus. At the same time, normal and model groups were administered equivalent amounts of 0.5% CMC-Na in the same way. Post-infection on day 4, the mice were sacrificed to collect blood plasma, lung and liver, which were weighed.\nPulmonary tissue homogenates were collected from mice lungs by centrifugation at 4500 rpm for 20 min. BCA assay was used to quantify the total protein in the supernatant of lung homogenates. Cytokine levels of IL-1β, IL-6, TNF-α, IL-10, MCP-1, INF-γ and INF-α were determined, as instructed by the manufacturer.\nFigure 5 C1-alleviated lung injury in mice after 4 days of administration (n = 6, means ± S.D.); the experiment design is the same as Figure 3. Concentration of chemokines/cytokines/interferon was measured on day 4 post-infection by ELISA in lung homogenates (n = 6). (A) IL-6; (B) IL-1β; (C) TNF-α; (D) MCP-1; (E) IL-10; (F) IFN-γ."}, "[2]": {"tested_on": "influenza virus H1N1 (A/FM/1/47)", "conditions": "for lung index: day 4, p < 0.001 vs model"}, "H1N1 virus": {"tested_on": "H1N1 virus", "test": "microbe, parasite or virus in culture", "type": "cell-based, influenza A virus", "conditions": "for IC50: Influenza A virus, H1N1, MDCK, 72 h"}, "Solubility observation": {"test": "Solubility observation", "type": "physicochemical", "conditions": "sterile water"}, "neuraminidase (NA)": {"tested_on": "neuraminidase (NA)", "test": "Neuraminidase activity assay in lung homogenates of H1N1-infected mice", "type": "in vivo, BALB/c mice", "method": "as §1, with “At the same time, normal and model groups were administered equivalent amounts of 0.5% CMC-Na in the same way. Post-infection on day 4, the mice were sacrificed to collect blood plasma, lung and liver, which were weighed.” left out\nViral titers were measured using neuraminidase (NA) assay kit designed to detect antiviral effects. […] A reaction mixture consisted of 10 μL lung homogenates, 70 μL detection buffer, 10 μL Mill-Q water and 10 μL NA fluorescence substrate in a 96-well plate. […] The fluorescence of the mixture was quantified at 322 nm of excitation wavelength and 450 nm of emission wavelength with a muti-mode microplate read (Waltham, VT, USA). […]"}, "[3]": {"tested_on": "influenza A virus nucleoprotein (NP)", "test": "Immunohistochemistry of viral nucleoprotein in lung tissue of H1N1-infected mice", "type": "in vivo, BALB/c mice", "conditions": "C1-treated mice vs indirubin-treated mice and model group; day 4", "method": "Five-week-old healthy male BALB/c mice (n = 6 per group) were maintained in pathogen-free individual cages with free access to drinking water and sterilized food, as described previously. The mice were randomly allocated into the following groups: normal control group, H1N1 model group, C1 (2.5, 5, 10 mg/kg) treatment group, and positive control group treated with oseltamivir (20 mg/kg, positive control). Except for normal controls, the rest of mice were intranasally infected with 30 μL of diluted H1N1virus (3LD50) after light anesthesia. Negative control mice (normal group) were challenged by inhaling equal volumes (30 μL) of virus diluent as the other mice. […]\nInfluenza virus load, expression of NPs and ionized calcium binding adaptor molecule-1(Iba-1) were determined using IHC. […]\nFigure 4 Suppression of H1N1 viral replication in vivo by C1, the experimental protocol is the same as Figure 3. (A) The NA activity in lung homogenates by fluorescence effect; (B) The expression level of INF-α in lung homogenates by ELISA; (C) The expression of NP in lung tissue, the representative IHC pathological images of the lung on day 4 post-infection, the red arrow indicates viral N protein-positive signal. […]"}, "[4]": {"tested_on": "ionized calcium binding adaptor molecule-1 (Iba-1)", "set-up": "species or system BALB/c mice", "conditions": "mouse, in vivo"}, "A549 cells [5]": {"tested_on": "A549 cells", "test": "MTT cytotoxicity assay (TC50)"}, "A549 cells [6]": {"tested_on": "A549 cells", "conditions": "human"}, "hepatitis C virus": {"tested_on": "hepatitis C virus", "set-up": "method as in earlier work", "conditions": "cited from earlier work"}, "H1N1 influenza virus": {"tested_on": "H1N1 influenza virus", "test": "H1N1-induced ALI in mice treated with EA extract: lung index, liver index, body weight, H&E", "type": "in vivo"}}, "note": "Where two headings read alike, the source gives them in different places.", "data": [{"smiles": "CCOC(=O)C1=C[C@@H](OC(CC)CC)[C@H](NC(C)=O)[C@@H](N)C1", "note": "[Os., Oseltamivir phosphate, reference compound]", "values": [{"measurement": "expression level of IL-10 in lung homogenates", "setting": "[1]", "result": "higher"}, {"measurement": "expression level of INF-γ in lung homogenates", "setting": "[1]", "result": "higher"}, {"measurement": "IL-1β level in lung homogenates", "setting": "[1]", "result": "significantly reduced"}, {"measurement": "IL-6 level in lung homogenates", "setting": "[1]", "result": "significantly reduced"}, {"measurement": "MCP-1 production in lung homogenates", "setting": "[1]", "result": "significantly reduced"}, {"measurement": "TNF-α level in lung homogenates", "setting": "[1]", "result": "significantly reduced"}, {"measurement": "weight rate of mice raised", "setting": "[2]; Os. 20 mg/kg, days 0-4", "result": 21.6, "unit": "%"}, {"measurement": "lung histological damage (H&E)", "setting": "[2]; mouse, in vivo", "result": "significantly less"}]}, {"smiles": "Cc1nc2ccccc2c(=O)[nH]1", "note": "[Compound C1, 2-Methylquinazolin-4(3H)-one]", "values": [{"measurement": "IC50", "setting": "H1N1 virus", "result": 23.8, "unit": "µg/mL"}, {"measurement": "solubility", "setting": "Solubility observation", "result": "soluble"}, {"measurement": "NA activity in lung homogenates", "setting": "neuraminidase (NA); C1 2.5 mg/kg, vs model control", "result": "no differences"}, {"measurement": "NA activity in lung homogenates", "setting": "neuraminidase (NA); C1 5, 10 mg/kg, vs model group, p < 0.05", "result": "significantly lower"}, {"measurement": "viral N protein-positive signals in lung tissue", "setting": "[3]", "result": "fewer positive signals"}, {"measurement": "Iba-1 positive signals in lung tissue (macrophage recruitment)", "setting": "[4]", "result": "fewer positive signals"}, {"measurement": "expression level of IL-10 in lung homogenates", "setting": "[1]", "result": "higher"}, {"measurement": "expression level of INF-γ in lung homogenates", "setting": "[1]", "result": "higher"}, {"measurement": "IL-1β level in lung homogenates", "setting": "[1]", "result": "significantly reduced"}, {"measurement": "IL-6 level in lung homogenates", "setting": "[1]", "result": "significantly reduced"}, {"measurement": "MCP-1 production in lung homogenates", "setting": "[1]", "result": "significantly reduced"}, {"measurement": "TNF-α level in lung homogenates", "setting": "[1]", "result": "significantly reduced"}, {"measurement": "production of IFN-α in lung homogenates", "setting": "[1]; after treatment with C1, ELISA", "result": "remarkably decreased"}, {"measurement": "lung index", "setting": "[2]; C1 2.5 mg/kg i.g. once daily D0-D3, model 10.27 ± 0.50, normal 6.40 ± 0.14", "result": "8.85 ± 0.47", "unit": "mg/g"}, {"measurement": "weight rate of mice raised", "setting": "[2]; C1 2.5 mg/kg, days 0-4, model decreased 4.5%", "result": 2, "unit": "%"}, {"measurement": "lung index", "setting": "[2]; C1 5 mg/kg i.g. once daily D0-D3, model 10.27 ± 0.50", "result": "8.60 ± 0.29", "unit": "mg/g"}, {"measurement": "weight rate of mice decreased", "setting": "[2]; C1 5 mg/kg, days 0-4, model decreased 4.5%", "result": 2, "unit": "%"}, {"measurement": "lung index", "setting": "[2]; C1 10 mg/kg i.g. once daily D0-D3, model 10.27 ± 0.50", "result": "8.36 ± 0.28", "unit": "mg/g"}, {"measurement": "weight rate of mice raised", "setting": "[2]; C1 10 mg/kg, days 0-4", "result": 0.2, "unit": "%"}, {"measurement": "lung histological damage (H&E)", "setting": "[2]; mouse, in vivo", "result": "significantly less"}, {"measurement": "toxicity on liver and spleen", "setting": "[2]; mouse, in vivo, po", "result": "no toxicity"}, {"measurement": "TC50", "setting": "A549 cells [5]", "result": 79.7, "unit": "µg/mL"}]}, {"smiles": "O=C1Nc2ccccc2/C1=C1/Nc2ccccc2C1=O", "note": "[indirubin, reference compound]", "values": [{"measurement": "Iba-1 positive signals in lung tissue (macrophage recruitment)", "setting": "[4]", "result": "fewer positive signals"}, {"measurement": "lung edema measured as lung index", "setting": "[2]; mouse, in vivo", "result": "minimal effect"}, {"measurement": "lung histological damage (H&E)", "setting": "[2]; mouse, in vivo", "result": "no evident histological alteration"}]}, {"smiles": "O=C1c2cc(O)cc(O)c2CN1c1ccc(O)cc1", "note": "[Compound C4, clitocybin A]", "values": [{"measurement": "antiviral activity", "setting": "H1N1 virus", "result": "did not exert any antiviral activity"}, {"measurement": "TC50", "setting": "A549 cells [5]", "result": 167.7, "unit": "µg/mL"}]}, {"smiles": "Cc1nc2ccccc2c(=O)n1-c1ccccc1O", "note": "[Compound C3, 3-(2′-Hydroxyphenyl)-2-methyl-4(3H)-quinazolinone]", "values": [{"measurement": "IC50", "setting": "H1N1 virus", "result": 100, "unit": "µg/mL"}, {"measurement": "TC50", "setting": "A549 cells [5]", "result": 106.8, "unit": "µg/mL"}]}, {"smiles": "CC1(C)C[C@H](O)C[C@@]2(C)OC(=O)C=C12", "note": "[Compound C2, loliolide]", "values": [{"measurement": "antiviral activity", "setting": "H1N1 virus", "result": "did not exert any antiviral activity"}, {"measurement": "TC50", "setting": "A549 cells [6]", "result": 26.7, "unit": "µg/mL"}, {"measurement": "inhibition of the hepatitis C virus", "setting": "hepatitis C virus", "result": "potent inhibitor"}]}, {"smiles": "NC(=O)c1ncn([C@@H]2O[C@H](CO)[C@@H](O)[C@H]2O)n1", "note": "[Ribavrin, Ribavirin]", "values": [{"measurement": "IC50", "setting": "H1N1 virus", "result": 37.2, "unit": "µg/mL"}, {"measurement": "body weight over 5 days", "setting": "H1N1 influenza virus; EA extract 10 mg/kg, Ribavirbin 100 mg/kg, day 1 to day 5", "result": "gained weight"}, {"measurement": "lung tissue histological changes (H&E)", "setting": "H1N1 influenza virus; EA extract and Ribavirin groups compared to the infected group", "result": "relieved tissue consolidation"}, {"measurement": "lung index", "setting": "H1N1 influenza virus; Ribavirbin 100 mg/kg i.g. once daily 4 days, model 11.58 ± 0.39, p < 0.001", "result": "7.32 ± 0.39", "unit": "mg/g"}, {"measurement": "liver index", "setting": "H1N1 influenza virus; Ribavirbin 100 mg/kg, model 50.73 ± 0.58, normal 62.79 ± 1.24", "result": "59.60 ± 1.68", "unit": "mg/g"}]}]}
